Reference: US9549964B2, “Diagnosis, prognosis, and treatment of kidney disease” (Beth Israel Deaconess Medical Center, Inc., priority 2011, dated 2017)
Residues, ends and D or L forms follow the SMILES beside them.

Assays:
human serum albumin = experiment: Prevention of albumin carbamylation by cyanate in the presence of competing nucleophiles (% C-Alb by LC-MS); conditions: 10 mM scavenger, 0.25 mM cyanate, 37° C., 14 hours; for % CarbAlb Average +/− SD / % Decrease compared to no inhibitor: human serum albumin 4 mg/ml
Method: The pH of each was adjusted to pH 7.4 using HCl. HSA (4 mg/mL) was added to each amino acid solution, and then mixed 1:1 with 0.5 mM potassium cyanate in 100 mM potassium phosphate pH 7.4 (0.25 mM cyanate final concentration). […] Desalted albumin was then denatured and digested for analysis as described above.
To this, we added 0.25 mM cyanate, incubated at 37° C. for 14 hours, and analyzed for % C-Alb thereafter (Table 11).

[1] = Cyanate titration of an equimolar amino acid mixture (susceptibility of amino acids to carbamylation); conditions: increasing cyanate, physiological buffer pH 7.4, overnight 37° C.
Method: Carbamylation titration experiments were performed using an amino acid standard mix from Sigma Aldrich (Cat. No. AAS18) supplemented with tryptophan, cysteine, and glutamine; all amino acids were equimolar (2.5 mM stock). The 0.1 N HCl in the standard solution was neutralized with ammonium hydroxide and removed by lyophilization, and the dried amino acids were diluted to final concentration of 50 μM (each) in 100 mM potassium phosphate pH 7.4. […] Carbamylation was halted with addition of 1 M HCl, and excess cyanate and HCl were removed by vacuum lyophilization at room temperature. Isotopic standards were then mixed with the reactions, the tube were re-lyophilized, and amino acid mixtures were then S-alkylated with iodoacetamide, butylated with butanolic HCl, and analyzed using methods similar to those described for serum amino acids.
To differentiate the isocyanate-scavenging ability of individual amino acids, we added increasing concentrations of cyanate to an equimolar mixture of all twenty amino acids in a physiological buffer. As expected, increasing concentration of cyanate produced linear increases of all carbamylated amino acids and depletion of their unmodified forms (FIGS. 9A and 9B). From the titration curves, we calculated the cyanate concentration at which 10% unmodified amino acid forms were depleted.

SMILES	Prevention of C-Alb formation / cyanate scavenging (in words) (human serum albumin)	% CarbAlb Average +/− SD (human serum albumin)	% Decrease compared to no inhibitor (human serum albumin)	Susceptibility to carbamylation / cyanate binding (in words) [1]
NCCS(=O)(=O)O [Taurine]	effectively scavenged cyanate	22 ± 1.7%	–	–
N[C@@H](CCC(=O)O)C(=O)O [Glutamate]	–	38 ± 1.2%	3%	–
C[C@H](N)C(=O)O [Alanine]	–	32 ± 1.7%	–	–
NCC(=O)O [Glycine]	–	31 ± 1.8%	–	–
NCCCC[C@H](N)C(=O)O [Lysine]	–	31 ± 0.9%	21%	did not avidly bind cyanate
CC(C)[C@H](N)C(=O)O [Valine]	–	33 ± 1.1%	16%	–
N[C@@H](CS)C(=O)O [Cysteine]	prevented C-Alb formation	23 ± 1.9%	–	very high cyanate binding avidity by the free thiol group
N[C@@H](Cc1c[nH]cn1)C(=O)O [Histidine]	–	26 ± 1.0%	–	prone to carbamylation at low cyanate concentrations
N=C(N)NCCC[C@H](N)C(=O)O [Arginine]	–	27 ± 1.6%	–	prone to carbamylation at low cyanate concentrations
CC(C)C[C@H](N)C(=O)O [Leucine]	–	37 ± 2.2%	–	–
NC(=O)CC[C@H](N)C(=O)O [Glutamine]	–	32 ± 2.9%	–	–
N[C@@H](CCC(=O)N[C@@H](CS)C(=O)NCC(=O)O)C(=O)O [Glutathione]	–	29 ± 1.4%	–	–
O=C(O)[C@@H]1CCCN1 [Proline]	–	34 ± 1.6%	–	–
NCC(=O)NCC(=O)O [Glycylglycine] (H-Gly-Gly-OH)	–	–	–	more strongly carbamylated than glycine or other amino acids
N[C@@H](Cc1c[nH]c2ccccc12)C(=O)O [Tryptophan]	–	32 ± 2.7%	–	–
